As a reminder, the Ki is a dissociation constant, usually derived from enzyme kinetics or from competition with a known ligand. What is called inhibition is the change of the read-out against control, counted positive when it falls. The efflux ratio is the permeability from basolateral to apical divided by that in the opposite direction, in the common usage.

The target in data set [1] is T1, BACE1 (Homo sapiens (Human), UniProt P56817). In words: BACE1 binding assay (SPA-based radioligand binding). To be noted: pH 4.5, 10 nM radioligand, Ki calculated from IC50. As for the experimental part: The binding assay was performed as SPA-based assay using a biotinylated form of human BACE1 recombinantly expressed and subsequently purified from Freestyle HEK293 cells. The binding assay was run in a 50 mM sodium acetate buffer, pH 4.5 containing 50 mM NaCl and 0.03% Tween-20 in white clear bottom 384 plates (Corning #3653). 10 nM (final concentration) radioligand ([^3H]—N-((1S,2R)-1-benzyl-3-cyclopropylamino-2-hydroxy-propyl)-5-(methanesulfonyl-methyl-amino)-N—((R)-1-phenyl-ethyl)-isophthalamide) (TRQ11569 purchased from GE Healthcare) was mixed with test compound at a given concentration, 6 nM (final concentration) human BACE1 and 25 μg Streptavidin coated PVT core SPA beads (RPNQ0007, GE Healthcare Life Sciences) in a total volume of 40 μl. Several concentrations of each test compound were tested in the assay for IC50 determination. The plates were incubated for one hour at room temperature and counted in a Wallac Trilux counter. Total and non-specific binding were determined using buffer and 1 μM (final concentration) of the high affinity BACE1 reference inhibitor (S)-6-[3-chloro-5-(5-prop-1-ynyl-pyridin-3-yl)-thiophen-2-yl]-2-imino-3,6-dimethyl-tetrahydro-pyrimidin-4-one, respectively. For each test compound, a IC50 value (the concentration mediating 50% inhibition of the specific binding of the radioligand) was determined from concentration-response curve and used to calculate the Ki from the equation Ki=IC50/(1+L/Kd), where L and Kd are the final concentration of the radioligand used in the assay and the dissociation constant of the radioligand, respectively. The Kd of the radioligand was determined from saturation binding experiments.

Data set [2] deals with T1, BACE1. In words: BACE1 efficacy assay (FRET-based, commercial BACE1 kit). The data set is classed as biochemical. To be noted: 10 μM test compound. As for the experimental part: The efficacy assay was performed as a FRET-based assay using a commercially available BACE1 kit (Life Technologies, P2985). 2 μl test compound at 10 μM (final concentration) and 15 μl BACE1 enzyme from the kit (final concentration 3 nM) were preincubated for 15 minutes at room temperature before addition of 15 μl of substrate from the kit (250 nM final concentration) and incubated for additional 90 minutes at room temperature. The assay plate was subsequently read in a Pherastar (Ex540/Em590). The enzyme activity observed in presence of test compound were normalized to the enzyme activity observed in presence of buffer and 10 μM (final concentration) of the high affinity BACE1 reference inhibitor (S)-6-[3-Chloro-5-(5-prop-1-ynyl-pyridin-3-yl)-thiophen-2-yl]-2-imino-3,6-dimethyl-tetra-hydropyrimidin-4-one, respectively. The efficacy of the test compounds was evaluated at 10 μM (final concentration) and defined as the percent inhibition of the enzyme activity using the equation % inhibition=100%−normalized enzyme activity in percent.

Another data set relates to P-gp (MDR1). In words: MDCK-MDR1 assay (permeability, efflux ratio). It counts as in vitro ADME. To be noted: dog, Papp BA/Papp AB, 60-minute incubation, Pgp substrate when ≥2. How it is done: The permeability of the test compounds was assessed in MDCK-MDR1 cells that were cultured to confluency (4-6 days) in a 96 transwell plate. Test compounds were diluted with the transport buffer (HBSS+1% BSA) to a concentration of 0.5 μM and applied to the apical or basolateral side of the cell monolayer. Permeation of the test compounds from A to B direction or B to A direction was determined in triplicate over a 60-minute incubation time at 37° C. and 5% CO2 with a relative humidity of 95%. Test compounds were quantified by LC-MS/MS analysis based on the peaks area ratios of analyte/IS in both the receiver and donor wells of the transwell plate.
The apparent permeability coefficient Papp (cm/s) was calculated using the equation: Papp=(dCr/dt)×Vr/(A×C0)
Where dCr/dt is the cumulative concentration of compound in the receiver chamber as a function of time (M/s); Vr is the solution volume in the receiver chamber (0.05 mL on the apical side; 0.25 mL on the basolateral side); A is the surface area for the transport, i.e. 0.0804 cm^2 for the area of the monolayer; C0 is the initial concentration in the donor chamber (VIM).
Compounds are classified Pgp substrates when efflux ratio (Papp BA/Papp AB) is ≥2.

T1 sequence (P56817 46-501): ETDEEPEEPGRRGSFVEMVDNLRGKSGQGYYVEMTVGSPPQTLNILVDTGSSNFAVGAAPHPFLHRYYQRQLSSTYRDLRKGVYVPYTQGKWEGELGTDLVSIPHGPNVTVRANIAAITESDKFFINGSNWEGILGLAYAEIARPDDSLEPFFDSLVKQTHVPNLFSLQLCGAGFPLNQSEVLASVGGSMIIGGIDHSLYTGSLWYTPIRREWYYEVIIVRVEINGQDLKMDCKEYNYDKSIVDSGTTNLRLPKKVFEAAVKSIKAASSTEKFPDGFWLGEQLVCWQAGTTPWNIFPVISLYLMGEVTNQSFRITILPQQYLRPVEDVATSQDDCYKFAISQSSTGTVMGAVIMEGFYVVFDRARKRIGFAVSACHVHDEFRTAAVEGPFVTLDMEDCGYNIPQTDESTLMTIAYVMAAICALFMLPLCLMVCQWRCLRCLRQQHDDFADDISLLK

As for `Cc1cc(C#N)cnc1C(=O)Nc1ccc(F)c([C@@]2(C)N=C(N)[C@@](C)(F)C[C@@H]2F)c1` [Compound 21, N-(3-((2R,3S,5S)-6-amino-3,5-difluoro-2,5-dimethyl-2,3,4,5-tetrahydropyridin-2-yl)-4-fluorophenyl)-5-cyano-3-methylpicolinamide], the Ki at BACE1 [1] is 4.1 nM. For the same compound, the inhibition at 10 µM against BACE1 [2] stood at 117%. In the data set with P-gp (MDR1), the efflux ratio at 60 min, 0.5 μM is 1.15.
Taken in the same sequence, the figures for `C[C@@]1(F)C[C@H](F)[C@@](C)(c2cc(NC(=O)c3ccc(F)cn3)ccc2F)N=C1N` [Compound 4, N-(3-((2R,3S,5R)-6-amino-3,5-difluoro-2,5-dimethyl-2,3,4,5-tetrahydropyridin-2-yl)-4-fluorophenyl)-5-fluoropicolinamide] were 98 nM, 101% and 1.17.
For the compound `C[C@@]1(F)C[C@H](F)[C@@](C)(c2cc(NC(=O)c3coc(C(F)F)n3)ccc2F)N=C1N` [Compound 13, N-(3-((2R,3S,5R)-6-amino-3,5-difluoro-2,5-dimethyl-2,3,4,5-tetrahydropyridin-2-yl)-4-fluorophenyl)-2-(difluoromethyl)oxazole-4-carboxamide], on BACE1 [1], the inhibition constant (Ki) is 62 nM. The inhibition at 10 µM at BACE1 [2] is 108%. In addition, the efflux ratio at 60 min, 0.5 μM in the data set with P-gp (MDR1) is 11.7.
For `Cn1ccnc1C(=O)Nc1ccc(F)c([C@@]2(C)N=C(N)[C@](C)(F)C[C@@H]2F)c1` [Compound 10, N-(3-((2R,3S,5R)-6-amino-3,5-difluoro-2,5-dimethyl-2,3,4,5-tetrahydropyridin-2-yl)-4-fluorophenyl)-1-methyl-1H-imidazole-2-carboxamide], on BACE1 [1], the Ki was 820 nM. At BACE1 [2], the inhibition at 10 µM turned out to be 115%.
Turning to `COc1ccc(C(=O)Nc2ccc(F)c([C@@]3(C)N=C(N)[C@](C)(F)C[C@@H]3F)c2)nc1` [Compound 7, N-(3-((2R,3S,5R)-6-amino-3,5-difluoro-2,5-dimethyl-2,3,4,5-tetrahydropyridin-2-yl)-4-fluorophenyl)-5-methoxypicolinamide], the Ki on BACE1 [1] is 39 nM. The inhibition at 10 µM against BACE1 [2] came out at 102%. Besides, the efflux ratio at 60 min, 0.5 μM in the data set on P-gp (MDR1) was determined as 5.67.
As for `[2H]C([2H])([2H])Oc1ccc(C(=O)Nc2ccc(F)c([C@@]3(C)N=C(N)[C@](C)(F)C[C@@H]3F)c2)nc1` [Compound 8, N-(3-((2R,3S,5R)-6-amino-3,5-difluoro-2,5-dimethyl-2,3,4,5-tetrahydropyridin-2-yl)-4-fluorophenyl)-5-(methoxy-d3)picolinamide], the Ki on BACE1 [1] is 58 nM. In addition, at BACE1 [2], the inhibition at 10 µM was found to be 100%. In addition, the efflux ratio at 60 min, 0.5 μM in the data set on P-gp (MDR1) was found to be 0.95.
Taken in the same sequence, the figures for `C[C@@]1(F)C[C@H](F)[C@@](C)(c2cc(NC(=O)c3ccc(Cl)cn3)ccc2F)N=C1N` [Compound 9, N-(3-((2R,3S,5R)-6-amino-3,5-difluoro-2,5-dimethyl-2,3,4,5-tetrahydropyridin-2-yl)-4-fluorophenyl)-5-chloropicolinamide] were 36 nM, 109% and 1.31.
In the same order, the values of `[2H]C([2H])([2H])Oc1ccc(C(=O)Nc2ccc(F)c([C@@]3(C)N=C(N)[C@@](C)(F)C[C@H]3F)c2)nc1` [Compound 23, N-(3-((2R,3R,5S)-6-amino-3,5-difluoro-2,5-dimethyl-2,3,4,5-tetrahydropyridin-2-yl)-4-fluorophenyl)-5-(methoxy-d3)picolinamide] are 81 nM, 107% and 0.95.
On to `[2H]C([2H])([2H])Oc1ccc(C(=O)Nc2cc(F)c(F)c([C@@]3(C)N=C(N)[C@@](C)(F)C[C@@H]3F)c2)nc1` [Compound 22, N-(3-((2R,3S,5S)-6-amino-3,5-difluoro-2,5-dimethyl-2,3,4,5-tetrahydropyridin-2-yl)-4,5-difluorophenyl)-5-(methoxy-d3)picolinamide], for which the Ki on BACE1 [1] is 3.6 nM. At BACE1 [2], the inhibition at 10 µM came out at 101%. The efflux ratio at 60 min, 0.5 μM in the data set on P-gp (MDR1) is 0.52.
Take `COc1cnc(C(=O)Nc2ccc(F)c([C@@]3(C)N=C(N)[C@@](C)(F)C[C@@H]3F)c2)cn1` [Compound 2, N-(3-((2R,3S,5S)-6-amino-3,5-difluoro-2,5-dimethyl-2,3,4,5-tetrahydropyridin-2-yl)-4-fluorophenyl)-5-methoxypyrazine-2-carboxamide]: the Ki at BACE1 [1] was 26 nM. Also, the inhibition at 10 µM against BACE1 [2] was found to be 99%. In the data set on P-gp (MDR1), the efflux ratio at 60 min, 0.5 μM is 0.79.
On to `Cc1nc(C(=O)Nc2ccc(F)c([C@@]3(C)N=C(N)[C@](C)(F)C[C@@H]3F)c2)co1` [Compound 6, N-(3-((2R,3S,5R)-6-amino-3,5-difluoro-2,5-dimethyl-2,3,4,5-tetrahydropyridin-2-yl)-4-fluorophenyl)-2-methyloxazole-4-carboxamide], for which, on BACE1 [1], the Ki is 58 nM. Moreover, the inhibition at 10 µM on BACE1 [2] worked out at 101%. The efflux ratio at 60 min, 0.5 μM in the data set with P-gp (MDR1) amounted to 1.1.
As to `C[C@@]1(F)C[C@H](F)[C@@](C)(c2cc(NC(=O)c3ccn(C(F)F)n3)ccc2F)N=C1N` [Compound 14, N-(3-((2R,3S,5R)-6-amino-3,5-difluoro-2,5-dimethyl-2,3,4,5-tetrahydropyridin-2-yl)-4-fluorophenyl)-1-(difluoromethyl)-1H-pyrazole-3-carboxamide], the Ki at BACE1 [1] is 45 nM. Further, the inhibition at 10 µM against BACE1 [2] came out at 112%. Further, in the data set with P-gp (MDR1), the efflux ratio at 60 min, 0.5 μM worked out at 15.8.
In the case of `COc1cnc(C(=O)Nc2ccc(F)c([C@@]3(C)N=C(N)[C@](C)(F)C[C@@H]3F)c2)cn1` [Compound 5, N-(3-((2R,3S,5R)-6-amino-3,5-difluoro-2,5-dimethyl-2,3,4,5-tetrahydropyridin-2-yl)-4-fluorophenyl)-5-methoxypyrazine-2-carboxamide], at BACE1 [1], the Ki was 51 nM. The efflux ratio at 60 min, 0.5 μM in the data set on P-gp (MDR1) came to 1.53.
Taken in the same sequence, the figures for `C[C@@]1(F)C[C@H](F)[C@@](C)(c2cc(NC(=O)c3ccc(C#N)cn3)ccc2F)N=C1N` [Compound 17, N-(3-((2R,3S,5R)-6-amino-3,5-difluoro-2,5-dimethyl-2,3,4,5-tetrahydropyridin-2-yl)-4-fluorophenyl)-5-cyanopicolinamide] were 39 nM and 0.45.
On to `Cc1csc(C(=O)Nc2ccc(F)c([C@@]3(C)N=C(N)[C@](C)(F)C[C@@H]3F)c2)n1` [Compound 12, N-(3-((2R,3S,5R)-6-amino-3,5-difluoro-2,5-dimethyl-2,3,4,5-tetrahydropyridin-2-yl)-4-fluorophenyl)-4-methylthiazole-2-carboxamide], for which the Ki on BACE1 [1] was 99 nM. For the same compound, the inhibition at 10 µM at BACE1 [2] stood at 118%.
Consider `C[C@]1(F)C[C@H](F)[C@@](C)(c2cc(NC(=O)c3ccc(Br)cn3)ccc2F)N=C1N` [Compound 24, N-(3-((2R,3S,5S)-6-amino-3,5-difluoro-2,5-dimethyl-2,3,4,5-tetrahydropyridin-2-yl)-4-fluorophenyl)-5-bromopicolinamide], for which, at BACE1 [1], the Ki is 4.3 nM. The inhibition at 10 µM against BACE1 [2] was determined as 103%.
For `C[C@@]1(F)C[C@H](F)[C@@](C)(c2cc(NC(=O)c3cnc(C(F)(F)F)cn3)ccc2F)N=C1N` [Compound 11, N-(3-((2R,3S,5R)-6-amino-3,5-difluoro-2,5-dimethyl-2,3,4,5-tetrahydropyridin-2-yl)-4-fluorophenyl)-5-(trifluoromethyl)pyrazine-2-carboxamide], the Ki on BACE1 [1] is 190 nM. In addition, on BACE1 [2], the inhibition at 10 µM worked out at 104%.

Source of the values: patent publication US10059669B2, “2-amino-3,5-difluoro-3,6-dimethyl-6-phenyl-3,4,5,6-tetrahydropyridines as BACE1 inhibitors for treating alzheimer's disease” (H. Lundbeck A/S, priority 2014, dated 2018).
